We go through 16 molecules from patent US20260035365A1, “1H-PYRROLO[3,2-B]PYRIDINE DERIVATIVES AS IRREVERSIBLE INHIBITORS OF MUTANT EGFR FOR THE TREATMENT OF CANCER” (Bayer Aktiengesellschaft, priority 2022, published 2026).

By IC50 is commonly meant the point on the concentration scale where inhibition reaches its midpoint. Read a high IC50 as lower potency.

In assay [1] the target is mutEGFR (D770_N771insSVD) (Homo sapiens, UniProt P00533, INS767SVD). The experiment in a line: Exon20-mutant-EGFR (D770_N771insSVD) TR-FRET kinase assay. In kind it is biochemical. As to conditions: 2 mM ATP, 15 min preincubation. The text has this: Inhibitory activity of compounds of the present invention against an Epidermal Growth Factor Receptor (EGFR) with an insertion of the amino acids sequence SVD between D770 and N771 (SEQ ID No. 5) was quantified employing the TR-FRET based kinase activity assay as described in the following paragraphs.
Sequence of mutEGFR (D770_N771insSVD) (P00533 with tags, fused parts or gaps INS767SVD limits assumed): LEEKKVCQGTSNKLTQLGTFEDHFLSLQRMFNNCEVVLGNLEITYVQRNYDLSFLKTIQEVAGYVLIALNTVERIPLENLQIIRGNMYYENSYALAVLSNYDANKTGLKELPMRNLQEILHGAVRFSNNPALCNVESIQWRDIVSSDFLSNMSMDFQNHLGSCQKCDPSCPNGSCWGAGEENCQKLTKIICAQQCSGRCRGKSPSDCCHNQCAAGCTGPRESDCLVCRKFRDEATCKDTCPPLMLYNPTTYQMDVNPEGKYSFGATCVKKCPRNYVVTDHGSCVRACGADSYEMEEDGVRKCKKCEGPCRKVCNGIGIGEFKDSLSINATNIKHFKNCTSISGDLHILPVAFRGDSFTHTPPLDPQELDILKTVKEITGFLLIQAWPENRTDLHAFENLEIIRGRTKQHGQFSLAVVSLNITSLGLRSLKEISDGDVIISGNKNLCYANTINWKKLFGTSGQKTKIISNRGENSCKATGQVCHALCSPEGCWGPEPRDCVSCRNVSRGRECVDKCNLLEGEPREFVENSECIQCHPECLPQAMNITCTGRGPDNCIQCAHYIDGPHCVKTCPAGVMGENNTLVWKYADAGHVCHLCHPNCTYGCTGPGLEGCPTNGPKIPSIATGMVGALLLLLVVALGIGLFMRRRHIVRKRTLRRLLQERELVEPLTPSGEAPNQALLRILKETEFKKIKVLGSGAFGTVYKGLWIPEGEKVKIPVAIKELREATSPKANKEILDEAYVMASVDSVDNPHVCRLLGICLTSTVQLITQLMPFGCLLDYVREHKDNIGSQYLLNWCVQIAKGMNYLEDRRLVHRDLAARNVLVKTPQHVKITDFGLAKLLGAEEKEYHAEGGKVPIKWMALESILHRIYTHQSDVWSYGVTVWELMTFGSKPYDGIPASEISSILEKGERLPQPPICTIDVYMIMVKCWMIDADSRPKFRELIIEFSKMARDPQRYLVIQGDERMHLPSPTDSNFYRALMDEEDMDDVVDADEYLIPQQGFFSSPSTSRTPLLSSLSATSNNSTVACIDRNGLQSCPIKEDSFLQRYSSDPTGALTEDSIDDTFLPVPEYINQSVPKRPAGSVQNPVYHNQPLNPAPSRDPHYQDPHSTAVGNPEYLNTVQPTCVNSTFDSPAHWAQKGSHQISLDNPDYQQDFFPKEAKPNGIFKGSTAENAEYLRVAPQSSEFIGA
A recombinant fusion protein of N-terminal Glutathion-S-Transferase (GST) and a fragment of human EGFR variant (amino acids R669 to A1210 with insertion of the amino acids sequence SVD between D770 and N771 (SEQ ID No. 5) (“EGFR ins SVD”), expressed in Sf9 insect cells and purified via affinity chromatography using Glutathion Sepharose as described above, was used as a kinase. As substrate for the kinase reaction the biotinylated peptide biotin-Ahx-AEEEEYFELVAKKK (C-terminus in amide form) (SEQ ID No. 6) was used which can be purchased e.g. form the company Biosynthan GmbH (Berlin-Buch, Germany).
For the assay 50 nl of a 100-fold concentrated solution of the test compound in DMSO was pipetted into either a black low volume 384 well microtiter plate or a black 1536 well microtiter plate (both Greiner Bio-One, Frickenhausen, Germany), 2 μl of a solution of EGFR in aqueous assay buffer [50 mM Hepes pH 7.0, 10 mM MgCl2, 1 mM dithiothreitol, 0.5 mM EGTA, 0.3 mM activated sodium ortho-vanadate, 0.005% (w/v) bovine serum albumin, 0.005% (v/v) Tween-20] were added and the mixture was incubated for 15 min at 22° C. to allow pre binding of the test compounds to the enzyme before the start of the kinase reaction. […] The concentration of EGFR was adjusted depending of the activity of the enzyme lot and was chosen appropriate to have the assay in the linear range, typical concentration was 15 pg/μl. The reaction was stopped by the addition of 3 μl of a solution of HTRF detection reagents (83.3 nM streptavidine-XL665 [Cisbio Bioassays, Codolet, France] and 1.67 nM PT66-Tb-Cryptate, a terbium-cryptate labelled anti-phospho-tyrosine antibody from Cisbio Bioassays [instead of the PT66 Tb cryptate PT66 Eu Chelate from Perkin Elmer can also be used]) in an aqueous EDTA-solution (133.3 mM EDTA, 0.2% (w/v) bovine serum albumin in 50 mM HEPES pH 7.5).
The resulting mixture was incubated 1 h at 22° C. to allow the binding of the biotinylated phosphorylated peptide to the streptavidine-XL665 and the PT66-Tb-Cryptate. Subsequently, the amount of phosphorylated substrate was evaluated by measurement of the resonance energy transfer from the PT66-Tb-Cryptate to the streptavidine-XL665. Therefore, the fluorescence emissions at 620 nm and 665 nm after excitation at 337 nm were measured in a HTRF reader, e.g. a Pherastar (BMG Labtechnologies, Offenburg, Germany) or a Viewlux (Perkin-Elmer). The ratio of the emissions at 665 nm and at […] was taken as the measure for the amount of phosphorylated substrate. The data were normalised (enzyme reaction without inhibitor=0% inhibition, all other assay components but no enzyme=100% inhibition).
On the technique in general: Time-resolved FRET reads energy transfer from a long-lived donor to a nearby acceptor.

The test system of another assay is BA/F3 (insSVD) cells. Put plainly: Ba/F3 cell survival assay (Cell Titer-Glo), EGFR-insSVD. In kind it is cell-based. As to conditions: Mus musculus, BaF3, 48 h, without IL-3, with EGF. Here is the method: 293T cells from ATCC were transfected with pBABEpuro expression constructs for WT EGFR or EGFR-insSVD, or EGFR-insSVD T790M, and pCL-Eco packaging vector using Fugene-6 transfection reagent from Promega. Plates were incubated at 37° C. for 48 h. Retrovirus was harvested by filtering the media supernatant through a 0.45 μm filter.
Ba/F3 cells purchased from DSMZ were grown in RPMI+10% FBS+10 ng/mL IL-3 and infected with filtered retroviral supernatant at a 1:2 dilution. Polybrene was added to a concentration of 8 μg/mL, plates were spun for 90 min, and incubated for 16 h at 37° C. 2 μg/mL puromycin was added to the infected cells 24 h after infection and cells were continually grown in the presence of puromycin and 10 ng/mL IL-3. Following stably expressing Ba/F3 cell lines were generated: Ba/F3-EGFR-WT, Ba/F3-EGFR-insSVD, Ba/F3-EGFR-insSVD T790M, (Ba/F3-vector-control).
For cell survival assays, Ba/F3 cells were grown to a density of 1-2 million cells per mL, spun down and resuspended in media without IL-3, and replated at a concentration of 200,000-500,000 cells per mL. The cells ectopically expressing WT EGFR, EGFR-insSVD, or EGFR-insSVD T790M were plated with 10 ng/mL Millipore Culture grade EGF. The cells ectopically expressing pBABEpuro empty vector were plated with 10 ng/mL IL-3.
2 days later, cells were plated in 50 μL in a 384 well plate at a concentration of 4000 cells per well for cells assayed in the absence of IL-3 and 2000 cells per well for cells assayed in the presence of IL-3. 100 nL of compound was added to each well using a 100 nL pin head, and plates were incubated at 37° C. for 48 h.
Cell viability was measured by adding 20 μL of Cell Titer-Glo Luminescent Cell Viability Reagent diluted 1:3 in PBS. Plates were sealed with Perkin Elmer Top-Seal, inverted several times to mix, and immediately centrifuged at 1000 rpm for 2 min. Plates were incubated in low light conditions for 8-10 min and luminescence was measured.
For orientation: ATP-based viability assays read luminescence as a measure of living cells.

Assay [2] has as its target mutEGFR (D770_N771insNPG, T790). Put plainly: mutEGFR (D770_N771insNPG, T790) kinase assay. It counts as biochemical, human.

Sequence of mutEGFR (D770_N771insNPG, T790) (P00533 with tags, fused parts or gaps INS770NPG limits assumed): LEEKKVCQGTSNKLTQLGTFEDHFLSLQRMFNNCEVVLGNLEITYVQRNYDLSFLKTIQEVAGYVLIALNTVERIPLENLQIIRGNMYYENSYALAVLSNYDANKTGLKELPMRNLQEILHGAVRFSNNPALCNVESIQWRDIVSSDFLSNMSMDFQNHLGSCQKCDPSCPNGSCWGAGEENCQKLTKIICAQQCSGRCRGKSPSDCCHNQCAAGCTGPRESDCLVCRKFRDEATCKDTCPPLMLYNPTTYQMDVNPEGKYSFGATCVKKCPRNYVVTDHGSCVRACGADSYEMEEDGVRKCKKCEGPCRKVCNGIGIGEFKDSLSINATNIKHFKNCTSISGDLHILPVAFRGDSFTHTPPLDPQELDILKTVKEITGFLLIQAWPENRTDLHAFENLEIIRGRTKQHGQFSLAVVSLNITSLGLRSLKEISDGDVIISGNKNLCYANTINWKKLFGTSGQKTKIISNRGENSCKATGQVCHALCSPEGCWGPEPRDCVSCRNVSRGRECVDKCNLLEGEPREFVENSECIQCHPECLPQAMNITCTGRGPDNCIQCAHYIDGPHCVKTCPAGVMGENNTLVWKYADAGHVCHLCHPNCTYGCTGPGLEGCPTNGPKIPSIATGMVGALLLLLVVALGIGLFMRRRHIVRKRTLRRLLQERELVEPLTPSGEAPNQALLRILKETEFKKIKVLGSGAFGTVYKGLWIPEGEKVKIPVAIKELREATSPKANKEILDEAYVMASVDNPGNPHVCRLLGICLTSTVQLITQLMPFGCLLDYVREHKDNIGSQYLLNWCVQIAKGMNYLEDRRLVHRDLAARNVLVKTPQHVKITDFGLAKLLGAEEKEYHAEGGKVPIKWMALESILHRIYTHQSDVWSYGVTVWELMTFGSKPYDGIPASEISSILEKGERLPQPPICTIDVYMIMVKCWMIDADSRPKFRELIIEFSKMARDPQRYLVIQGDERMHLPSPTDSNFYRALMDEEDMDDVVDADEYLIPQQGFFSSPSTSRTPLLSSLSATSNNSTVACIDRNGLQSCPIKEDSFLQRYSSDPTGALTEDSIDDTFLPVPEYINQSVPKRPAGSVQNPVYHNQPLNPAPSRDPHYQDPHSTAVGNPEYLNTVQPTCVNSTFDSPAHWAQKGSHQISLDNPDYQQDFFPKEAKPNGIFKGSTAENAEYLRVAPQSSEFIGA

Take `C=CC(=O)N(C)CCOc1cnccc1-c1[nH]c2cccnc2c1-c1cc(C(F)(F)F)ccc1F` [Example 51, N-{2-[(4-{3-[2-fluoro-5-(trifluoromethyl)phenyl]-1H-pyrrolo[3,2-b]pyridin-2-yl}pyridin-3-yl)oxy]ethyl}-N-methylprop-2-enamide]: the figures for the concentration for half-maximal inhibition (IC50) (in assay [1]; in the assay on BA/F3 (insSVD) cells; in assay [2]) were 75.6 nM, 1920 nM and 132 nM, respectively.

Turning to `C=CC(=O)N(C)CCOc1cnccc1-c1[nH]c2cccnc2c1-c1cc(F)cc(F)c1` [Example 52, N-[2-({4-[3-(3,5-difluorophenyl)-1H-pyrrolo[3,2-b]pyridin-2-yl]pyridin-3-yl}oxy)ethyl]-N-methylprop-2-enamide], the 50% inhibitory concentration (IC50) in assay [1] turned out to be 77.1 nM; in the assay with BA/F3 (insSVD) cells, 3100 nM; in assay [2], 204 nM.

For `C=CC(=O)N(C)CCOc1cnccc1-c1[nH]c2cccnc2c1-c1ccccc1CC` [Example 53, N-[2-({4-[3-(2-ethylphenyl)-1H-pyrrolo[3,2-b]pyridin-2-yl]pyridin-3-yl}oxy)ethyl]-N-methylprop-2-enamide], the values for the IC50 (in assay [1]; in the assay on BA/F3 (insSVD) cells; in assay [2]) were 112 nM, 3270 nM and 744 nM, respectively.

Consider `C=CC(=O)N(C)CCOc1cnccc1-c1[nH]c2cccnc2c1-c1cccc(OC)c1` [Example 54, N-[2-({4-[3-(3-methoxyphenyl)-1H-pyrrolo[3,2-b]pyridin-2-yl]pyridin-3-yl}oxy)ethyl]-N-methylprop-2-enamide], for which the IC50 in assay [1] is 118 nM; with BA/F3 (insSVD) cells it was 3960 nM; in assay [2], 240 nM.

Turning to `C=CC(=O)N(C)CCOc1cnccc1-c1[nH]c2cccnc2c1-c1cccc(C(C)C)c1` [Example 55, N-methyl-N-{2-[(4-{3-[3-(propan-2-yl)phenyl]-1H-pyrrolo[3,2-b]pyridin-2-yl}pyridin-3-yl)oxy]ethyl}prop-2-enamide], the IC50 in assay [1] is 118 nM; with BA/F3 (insSVD) cells, 3050 nM; in assay [2] it was 598 nM.

Regarding `C=CC(=O)N(C)CCOc1cnccc1-c1[nH]c2cccnc2c1-c1cc(OC)ccc1F` [Example 56, N-[2-({4-[3-(2-fluoro-5-methoxyphenyl)-1H-pyrrolo[3,2-b]pyridin-2-yl]pyridin-3-yl}oxy)ethyl]-N-methylprop-2-enamide], the IC50 worked out at 152 nM in assay [1], 4180 nM in the assay on BA/F3 (insSVD) cells and 395 nM in assay [2].

Turning to `C=CC(=O)N(C)CCOc1cnccc1-c1[nH]c2cccnc2c1-c1cc(Cl)ccc1Cl` [Example 57, N-[2-({4-[3-(2,5-dichlorophenyl)-1H-pyrrolo[3,2-b]pyridin-2-yl]pyridin-3-yl}oxy)ethyl]-N-methylprop-2-enamide], the figures for the half-maximal inhibitory concentration (IC50) (in assay [1]; in the assay on BA/F3 (insSVD) cells; in assay [2]) were 156 nM, 4590 nM and 450 nM, respectively.

For `C=CC(=O)N(C)CCOc1cnccc1-c1[nH]c2cccnc2c1-c1cccc(OC(F)(F)F)c1` [Example 58, N-methyl-N-{2-[(4-{3-[3-(trifluoromethoxy)phenyl]-1H-pyrrolo[3,2-b]pyridin-2-yl}pyridin-3-yl)oxy]ethyl}prop-2-enamide], the concentration for half-maximal inhibition (IC50) in assay [1] stood at 249 nM; in the assay on BA/F3 (insSVD) cells, 6280 nM; in assay [2] it was 1160 nM.

In the case of `C=CS(=O)(=O)N(C)CCOc1cnccc1-c1[nH]c2cccnc2c1-c1cc(C(F)(F)F)ccc1F` [Example 59, N-{2-[(4-{3-[2-fluoro-5-(trifluoromethyl)phenyl]-1H-pyrrolo[3,2-b]pyridin-2-yl}pyridin-3-yl)oxy]ethyl}-N-methylethenesulfonamide], the results for the IC50 (in assay [1]; in the assay on BA/F3 (insSVD) cells; in assay [2]) were 0.499 nM, 76.4 nM and 1.6 nM, respectively.

Consider `C=CS(=O)(=O)N(C)CCOc1cnccc1-c1[nH]c2cccnc2c1-c1cc(Cl)ccc1F` [Example 60, N-[2-({4-[3-(5-chloro-2-fluorophenyl)-1H-pyrrolo[3,2-b]pyridin-2-yl]pyridin-3-yl}oxy)ethyl]-N-methylethenesulfonamide], for which the IC50 was found to be 0.809 nM in assay [1], 154 nM in the assay with BA/F3 (insSVD) cells and 2.02 nM in assay [2].

As to `C=CS(=O)(=O)N(C)CCOc1cnccc1-c1[nH]c2cccnc2c1-c1cc(F)ccc1F` [Example 61, N-[2-({4-[3-(2,5-difluorophenyl)-1H-pyrrolo[3,2-b]pyridin-2-yl]pyridin-3-yl}oxy)ethyl]-N-methylethenesulfonamide], the results for the IC50 (in assay [1]; with BA/F3 (insSVD) cells; in assay [2]) were 0.872 nM, 120 nM and 2.82 nM, respectively.

With `C=CS(=O)(=O)N(C)CCOc1cnccc1-c1[nH]c2cccnc2c1-c1ccc2ccsc2c1` [Example 62, N-[2-({4-[3-(1-benzothiophen-6-yl)-1H-pyrrolo[3,2-b]pyridin-2-yl]pyridin-3-yl}oxy)ethyl]-N-methylethenesulfonamide], the IC50 was 1.14 nM in assay [1], 326 nM in the assay with BA/F3 (insSVD) cells and 3.3 nM in assay [2].

For `C=CS(=O)(=O)N(C)CCOc1cnccc1-c1[nH]c2cccnc2c1-c1cccc(CC)c1` [Example 63, N-[2-({4-[3-(3-ethylphenyl)-1H-pyrrolo[3,2-b]pyridin-2-yl]pyridin-3-yl}oxy)ethyl]-N-methylethenesulfonamide], the 50% inhibitory concentration (IC50) came out at 1.44 nM in assay [1], 455 nM in the assay with BA/F3 (insSVD) cells and 5.88 nM in assay [2].

For `C=CS(=O)(=O)N(C)CCOc1cnccc1-c1[nH]c2cccnc2c1-c1cc(C)ccc1F` [Example 64, N-[2-({4-[3-(2-fluoro-5-methylphenyl)-1H-pyrrolo[3,2-b]pyridin-2-yl]pyridin-3-yl}oxy)ethyl]-N-methylethenesulfonamide], the IC50 worked out at 1.47 nM in assay [1], 92.9 nM in the assay with BA/F3 (insSVD) cells and 2.21 nM in assay [2].

In the case of `C=CS(=O)(=O)N(C)CCOc1cnccc1-c1[nH]c2cccnc2c1-c1cc(C)cc(F)c1` [Example 65, N-[2-({4-[3-(3-fluoro-5-methylphenyl)-1H-pyrrolo[3,2-b]pyridin-2-yl]pyridin-3-yl}oxy)ethyl]-N-methylethenesulfonamide], the IC50 in assay [1] was 2.48 nM; in the assay with BA/F3 (insSVD) cells, 267 nM; in assay [2], 7.22 nM.

As to `C=CS(=O)(=O)N(C)CCOc1cnccc1-c1[nH]c2cccnc2c1-c1cccc(C(F)(F)F)c1` [Example 66, N-methyl-N-{2-[(4-{3-[3-(trifluoromethyl)phenyl]-1H-pyrrolo[3,2-b]pyridin-2-yl}pyridin-3-yl)oxy]ethyl}ethenesulfonamide], the 50% inhibitory concentration (IC50) in assay [1] is 2.61 nM; in the assay with BA/F3 (insSVD) cells, 421 nM; in assay [2], 6.66 nM.
